What was measured:
[1] = system: Mus musculus; test: Effective dose (p.o.) required to reverse ptosis induced by tetrabenazine in mouse; assay type: functional; conditions: po
[2] = species: Mus musculus; test: Effective dose against oxotremorine induced lacrimation; assay type: functional
[3] = species: Canis familiaris; test: Potentiation of the response to norepinephrine was measured; assay type: functional; conditions: Canis lupus familiaris
[4] = species: Mus musculus; test: Effective dose against oxotremorine induced tremor; assay type: functional
[5] = target: T1, Monoamine oxidase (Rattus norvegicus, UniProt P19643+P21396); test: In vitro inhibitory concentration against monoamine oxidase with 5-HT as substrate; assay type: protein assay; conditions: mouse
T1 sequence (P19643 whole entry): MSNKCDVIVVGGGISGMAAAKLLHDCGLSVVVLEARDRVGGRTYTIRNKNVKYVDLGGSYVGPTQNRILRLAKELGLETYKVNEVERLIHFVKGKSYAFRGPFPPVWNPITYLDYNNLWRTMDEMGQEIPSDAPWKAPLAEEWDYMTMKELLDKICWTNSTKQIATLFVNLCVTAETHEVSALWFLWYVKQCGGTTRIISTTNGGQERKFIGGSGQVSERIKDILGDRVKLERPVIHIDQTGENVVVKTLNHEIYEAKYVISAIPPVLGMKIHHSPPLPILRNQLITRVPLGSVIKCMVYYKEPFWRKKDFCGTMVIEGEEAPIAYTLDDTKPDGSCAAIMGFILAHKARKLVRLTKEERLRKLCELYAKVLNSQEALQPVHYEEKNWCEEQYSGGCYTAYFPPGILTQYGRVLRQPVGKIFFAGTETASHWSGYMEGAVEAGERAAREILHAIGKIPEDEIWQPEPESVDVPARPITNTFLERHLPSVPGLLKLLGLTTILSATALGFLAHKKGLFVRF
T1 sequence (P21396 whole entry): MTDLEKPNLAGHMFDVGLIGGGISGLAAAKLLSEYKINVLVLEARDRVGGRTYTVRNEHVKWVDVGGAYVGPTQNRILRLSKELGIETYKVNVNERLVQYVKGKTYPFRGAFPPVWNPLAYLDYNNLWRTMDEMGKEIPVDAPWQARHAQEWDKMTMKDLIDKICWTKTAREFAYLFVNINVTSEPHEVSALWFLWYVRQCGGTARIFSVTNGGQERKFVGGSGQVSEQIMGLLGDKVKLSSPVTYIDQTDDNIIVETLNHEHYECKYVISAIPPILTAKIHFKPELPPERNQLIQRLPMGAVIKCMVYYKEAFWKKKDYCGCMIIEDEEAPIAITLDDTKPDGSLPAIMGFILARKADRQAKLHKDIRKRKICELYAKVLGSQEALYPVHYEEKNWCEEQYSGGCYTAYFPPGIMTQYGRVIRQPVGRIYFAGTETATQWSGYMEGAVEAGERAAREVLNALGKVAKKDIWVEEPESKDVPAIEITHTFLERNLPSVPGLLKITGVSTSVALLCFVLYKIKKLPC

[6] = species: Canis familiaris; test: Inhibition of the response to phenethylamine was measured; assay type: functional; conditions: Canis lupus familiaris
[7] = system: Rattus norvegicus; test: Effective dose (p.o.) required to reverse ptosis induced by tetrabenazine in rat; assay type: functional; conditions: po
[8] = Acute toxicity (p.o.) after 24 hr was determined in mouse; assay type: organism-based; conditions: in vivo, po

Structure (SMILES)	ED50 [1] [mg/kg]	ED50 [2] [mg/kg]	ED50 [3] [mg/kg]	ED50 [4] [mg/kg]	KI50 [5] [M l-1]	ED50 [6] [mg/kg]	ED50 [7] [mg/kg]	LD50 at 24 h [8] [mg/kg]
Cl.c1ccc2c(c1)C1c3ccccc3C2C2CNCCC12 (stereo not drawn)	0.41	> 243	0.22	> 243	> 0.001	1.2	0.5	
CN1CCC2C3c4ccccc4C(c4ccccc43)C2C1.Cl (stereo not drawn)	1	36		100				
CN(C)CCC=C1c2ccccc2CCc2ccccc21 [AMITRIPTYLINE]	1.3	27	1	21		1.1	12	177
CN(C)CCCN1c2ccccc2CCc2ccccc21 [IMIPRAMINE]	1.3	130	3	70		1.5	4.12	
